Changes are numbered by the printed parent chain. “And” between values parts separate entries of the source, which are not always exact repeats. Identical values can stand only once.
What was measured:
PfCRT variant E198A = target: T1, PfCRT variant E198A (Plasmodium falciparum, UniProt Q9N623, A220S/E198A/I356T/K76T/M74I/N326S/N75E/Q271E/R371I); experiment: CQ uptake assay, oocytes expressing E198A; type: cell-based
T1 sequence (Q9N623 1-424 M74I/N75E/K76T/E198A/A220S/Q271E/N326S/I356T/R371I): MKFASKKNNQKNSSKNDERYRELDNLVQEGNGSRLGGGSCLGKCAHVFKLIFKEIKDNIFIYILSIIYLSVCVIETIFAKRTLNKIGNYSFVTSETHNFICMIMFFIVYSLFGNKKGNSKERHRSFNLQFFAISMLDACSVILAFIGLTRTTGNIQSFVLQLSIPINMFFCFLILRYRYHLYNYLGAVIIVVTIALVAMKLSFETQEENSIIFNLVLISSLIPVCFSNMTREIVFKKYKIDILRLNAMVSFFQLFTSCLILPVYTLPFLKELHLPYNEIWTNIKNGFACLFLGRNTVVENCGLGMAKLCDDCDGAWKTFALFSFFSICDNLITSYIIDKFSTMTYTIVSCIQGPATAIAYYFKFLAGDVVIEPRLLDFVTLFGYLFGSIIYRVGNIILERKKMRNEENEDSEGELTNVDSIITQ
Experimental: (§1) Site-directed mutagenesis of PfCRT^Dd2 was performed as described using the megaprimer method with overlap extension[21],[54]. The primer pairs used are listed in Supplementary Table 6. Please note that a codon-optimized and oocyte-adapted version of PfCRT^Dd2 was used[22] (Supplementary Fig. 16). The resulting DNA fragment was cloned into the SP64T expression vector and verified by sequencing.
(§2) Oocytes were obtained as described previously. Briefly, adult (>2 years old) female X. laevis frogs (NASCO) were anesthetized in a cooled solution of ethyl 3-amino benzoate methanesulfonate (0.1%, w/v), followed by a surgical removal of parts of the ovary. The ovary lobes were carefully dissected and small pieces of oocytes were incubated in Ca^2+-free ND96 buffer (96 mM NaCl, 2 mM KCl, 1 mM MgCl2 buffered with 5 mM HEPES/NaOH, pH 7.5) supplemented with collagenase D (0.1%, w/v; Roche), BSA (0.5%, w/v), and 9 mm Na2HPO4 at 18 °C for 14-16 h while gentle shaking. After incubation, the oocytes were carefully washed several times with ND96 buffer (96 mM NaCl, 2 mM KCl, 1.8 mM CaCl2, 1 mM MgCl2 buffered with 5 mM HEPES/NaOH, pH 7.5) supplemented with 100 mg l^−1 gentamycin). Defolliculated and healthy-looking stage V-VI oocytes were manually selected for RNA microinjection. The RNA was generated as following: The codon-optimized sequences of PfCRT variants were cloned into the pSP64T expression vector. After vector linearization using the restriction endonucleases BamHI or SalI (New England Biolabs), transcription was performed using the in vitro SP6 mMessage mMachine Kit (Ambion)[34]. The obtained RNA was kept at −80 °C and diluted with nuclease-free water to a concentration of 0.6 μg μl^−1. Precision-bore glass capillary tubes (3.5-inch glass capillaries; Drummond Scientific Co.) were pulled on a vertical puller (P-87 Flaming/Brown micropipette puller, Sutter Instrument Co.), graduated, and placed on a microinjector (Nanoject II Auto-Nanoliter Injector, Drummond Scientific Co.). 50 nl of nuclease-free water alone (control oocytes) or 50 nl of 0.6 μg μl^−1 RNA were injected under stereomicroscopic control. Injected oocytes were incubated for 46–72 h at 18 °C with twice-daily buffer changes before usage in experiments.
Drug uptake assays were performed as described previously[21],[22],[24],[34]. […] The direction of radio-labeled drug transport is here from the mostly acidic extracellular solution (pH 4.5 or 6.0, as indicated) into the oocyte cytosol (pH ∼ 7.2), which corresponds to the efflux of drug from the acidic digestive vacuole (pH 5.2) into the parasite cytoplasm (pH 7.2). The topology of PfCRT in the oolemma is such that both the N- and C-terminus face the extracellular milieu[3],[22]. In the parasite, the N- and C-terminus face the lumen of the digestive vacuole. CQ uptake kinetics were performed by incubating oocytes in ND96 buffer adjusted to a pH of 4.5, 5.0, 5.5, or 6.0 and supplemented with 50 nM [^3H]CQ and one of 7 different CQ concentrations (10 µM, 50 µM, 100 µM, 200 µM, 300 µM, 400 µM, 500 µM CQ). The reaction was stopped at the 60 min time point, which is in the linear uptake range[22],[34] (Supplementary Fig. 17). […] The radioactivity of each sample was measured using a liquid scintillation analyzer Tri-Carb 4910 TR (PerkinElmer). Oocytes that were injected with water instead of RNA were analyzed in parallel, representing the uptake of a drug by diffusion and/or endogenous permeation pathways. […]

PfCRT variant E207G = experiment: CQ uptake assay, oocytes expressing E207G; type: cell-based, Plasmodium falciparum
Experimental: as §1, §2
(§3) Drug uptake assays were performed as described previously[21],[22],[24],[34]. […] The direction of radio-labeled drug transport is here from the mostly acidic extracellular solution (pH 4.5 or 6.0, as indicated) into the oocyte cytosol (pH ∼ 7.2), which corresponds to the efflux of drug from the acidic digestive vacuole (pH 5.2) into the parasite cytoplasm (pH 7.2). The topology of PfCRT in the oolemma is such that both the N- and C-terminus face the extracellular milieu[3],[22]. In the parasite, the N- and C-terminus face the lumen of the digestive vacuole. CQ uptake kinetics were performed by incubating oocytes in ND96 buffer adjusted to a pH of 4.5, 5.0, 5.5, or 6.0 and supplemented with 50 nM [^3H]CQ and one of 7 different CQ concentrations (10 µM, 50 µM, 100 µM, 200 µM, 300 µM, 400 µM, 500 µM CQ). The reaction was stopped at the 60 min time point, which is in the linear uptake range[22],[34] (Supplementary Fig. 17). For determination of the amount of drug uptake for each oocyte, the reaction medium was removed and the oocytes were washed three times with 2 ml of ice-cold ND96 buffer. Each oocyte was individually transferred to a scintillation vial containing 5% sodium dodecyl sulfate (200 μl) for lysis. The radioactivity of each sample was measured using a liquid scintillation analyzer Tri-Carb 4910 TR (PerkinElmer). Oocytes that were injected with water instead of RNA were analyzed in parallel, representing the uptake of a drug by diffusion and/or endogenous permeation pathways. The resulting value represents the “background“ level of drug accumulation in oocytes (in-depth discussion in[22]). […]

PfCRT variant D311A = target: T2, PfCRT variant D311A (Plasmodium falciparum, UniProt Q9N623, A220S/D311A/I356T/K76T/M74I/N326S/N75E/Q271E/R371I); experiment: CQ uptake assay, oocytes expressing D311A; type: cell-based
T2 sequence (Q9N623 1-424 M74I/N75E/K76T/A220S/Q271E/D311A/N326S/I356T/R371I): T1 sequence (Q9N623 1-424 M74I/N75E/K76T/E198A/A220S/Q271E/N326S/I356T/R371I) with A198E, D311A
Experimental: as §1, §2, §3

[1] = E198A, 50 µM CQ, 1 h, mean ± SEM
[2] = pH 4.5, single replicates, Fig 1d left
[3] = pH 6.0, single replicates, Fig 1d left
[4] = E207G, 50 µM CQ, 1 h, mean ± SEM
[5] = D311A, 50 µM CQ, 1 h, mean ± SEM

Compound: CCN(CC)CCCC(C)Nc1ccnc2cc(Cl)ccc12 (centres unmarked) [CQ, chloroquine]
- Activity at pH 4.5 (PfCRT variant E198A; [1]): 1.23 ± 0.15 pmol h-1 oocyte-1
- Activity at pH 6.0 (PfCRT variant E198A; [1]): 3.10 ± 0.44 pmol h-1 oocyte-1
- R-value (PfCRT variant E198A; E198A, CQ transport at pH 4.5 / pH 6.0): 0.44 ± 0.11
- E198A transport activity pH 4.5 (PfCRT variant E198A; [2]): 1.49 pmol oocyte-1 h-1 and 1.34 pmol oocyte-1 h-1 and 0.87 pmol oocyte-1 h-1
- E198A transport activity pH 6.0 (PfCRT variant E198A; [3]): 2.08 pmol oocyte-1 h-1 and 3.94 pmol oocyte-1 h-1 and 3.27 pmol oocyte-1 h-1
- Activity at pH 4.5 (PfCRT variant E207G; [4]): 2.26 ± 0.46 pmol h-1 oocyte-1
- Activity at pH 6.0 (PfCRT variant E207G; [4]): 2.55 ± 0.15 pmol h-1 oocyte-1
- R-value (PfCRT variant E207G; E207G, CQ transport at pH 4.5 / pH 6.0): 0.88 ± 0.06
- E207G transport activity pH 4.5 (PfCRT variant E207G; pH 4.5, individual replicates, Fig 6b): 2.31 pmol oocyte-1 h-1 and 2.79 pmol oocyte-1 h-1 and 1.67 pmol oocyte-1 h-1
- E207G transport activity pH 6.0 (PfCRT variant E207G; pH 6.0, individual replicates, Fig 6b): 2.70 pmol oocyte-1 h-1 and 2.76 pmol oocyte-1 h-1 and 2.19 pmol oocyte-1 h-1
- E207G R-value (PfCRT variant E207G; ratio of activity pH 4.5 / pH 6.0): 0.86 and 1.01 and 0.76
- Activity at pH 4.5 (PfCRT variant D311A; [5]): 1.07 ± 0.25 pmol h-1 oocyte-1
- Activity at pH 6.0 (PfCRT variant D311A; [5]): 3.22 ± 0.61 pmol h-1 oocyte-1
- R-value (PfCRT variant D311A; D311A, CQ transport at pH 4.5 / pH 6.0): 0.33 ± 0.05
- D311A transport activity pH 4.5 (PfCRT variant D311A; [2]): 0.58 pmol oocyte-1 h-1 and 1.64 pmol oocyte-1 h-1 and 0.99 pmol oocyte-1 h-1
- D311A R-value (PfCRT variant D311A; pH 4.5 vs pH 6.0, Fig 1d left): 0.22 and 0.35 and 0.42
- D311A transport activity pH 6.0 (PfCRT variant D311A; [3]): 2.63 pmol oocyte-1 h-1 and 4.69 pmol oocyte-1 h-1 and 2.33 pmol oocyte-1 h-1

From PMC10349806 (Nature Communications, 2023)
